Experimental data: patent US12377110B2, “Fospropofol methods and compositions” (Epalex Corporation, priority 2019, dated 2025)

Experiment: Study A16 Part 1: PK of single ascending oral doses of fospropofol disodium (200 to 2000 mg), fasted healthy adults
Assay type: in vivo, human
Conditions: single dose of 800 mg (four 200 mg capsules)
Description: Part 1 of Study A16 was a double-blind, randomized, placebo-controlled study to investigate the safety-tolerability and PK of oral administration of single ascending doses of fospropofol disodium to healthy adult male and female volunteers.
Subjects were healthy adults (age 18-55 years inclusive, BMI 18-29.9 kg/m^2). Separate cohorts of 12 subjects each were randomized to receive fospropofol disodium at doses of 200, 400, 800, 1000, 1200, 1600, or 2000 mg (n=10 per cohort) or matching placebo (n=2 per cohort).
Subjects were admitted to the clinical unit for an overnight fast (Day −1), administered study drug on Day 1, and remained in the clinical unit until Day 2.
Fospropofol disodium was formulated as powder in an HPMC capsule, each capsule containing 200 mg of fospropofol disodium (weight adjusted for water content). Placebo was administered as an appropriate number of matching capsules.
Based on PK results from the early cohorts, sampling times were optimized beginning with Cohort 3 (800 mg) to preclose, 5, 10, 15, 20, 25, 30, 37, and 45, minutes and 1, 2, 4, 6, and 9 hours after closing.

**Q.** Which “Tolerability of propofol exposures” value does the source give for CC(C)c1cccc(C(C)C)c1OCOP(=O)([O-])O.[Na+] [fospropofol disodium] here?
**A.** The value was “well-tolerated”.
